In paper PMC3914206:

Key:
Assay type in all cases: binding
Details in all cases: Compound Concentration 10 µM
panel of 442 kinases [1] = molecular target: T1, panel of 442 kinases (Homo sapiens, UniProt Q86YV6)
T1 construct: purchased KINOMEscan
T1 sequence (Q86YV6 1-388): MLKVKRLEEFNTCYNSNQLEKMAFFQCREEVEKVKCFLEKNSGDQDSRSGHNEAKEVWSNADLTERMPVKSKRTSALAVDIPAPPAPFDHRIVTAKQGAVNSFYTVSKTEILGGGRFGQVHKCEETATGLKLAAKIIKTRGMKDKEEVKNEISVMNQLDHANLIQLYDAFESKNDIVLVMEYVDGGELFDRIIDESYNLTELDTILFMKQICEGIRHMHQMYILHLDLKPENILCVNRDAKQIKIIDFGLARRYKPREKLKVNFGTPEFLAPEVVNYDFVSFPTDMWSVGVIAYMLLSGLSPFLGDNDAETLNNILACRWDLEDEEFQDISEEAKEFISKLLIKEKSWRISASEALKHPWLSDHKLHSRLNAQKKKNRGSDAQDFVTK
From the text: (§1) We assessed the selectivity of members of this scaffold using the KINOMEscan methodology across a near comprehensive panel of 442 kinases [[18,27]].

panel of 442 kinases [2] = molecular target: T2, panel of 442 kinases (Homo sapiens, UniProt Q13627)
T2 construct: purchased KINOMEscan
From the text: as §1

panel of 442 kinases [3] = molecular target: T3, panel of 442 kinases (Homo sapiens, UniProt Q8WTQ7)
T3 construct: purchased KINOMEscan
T3 sequence (Q8WTQ7 1-553): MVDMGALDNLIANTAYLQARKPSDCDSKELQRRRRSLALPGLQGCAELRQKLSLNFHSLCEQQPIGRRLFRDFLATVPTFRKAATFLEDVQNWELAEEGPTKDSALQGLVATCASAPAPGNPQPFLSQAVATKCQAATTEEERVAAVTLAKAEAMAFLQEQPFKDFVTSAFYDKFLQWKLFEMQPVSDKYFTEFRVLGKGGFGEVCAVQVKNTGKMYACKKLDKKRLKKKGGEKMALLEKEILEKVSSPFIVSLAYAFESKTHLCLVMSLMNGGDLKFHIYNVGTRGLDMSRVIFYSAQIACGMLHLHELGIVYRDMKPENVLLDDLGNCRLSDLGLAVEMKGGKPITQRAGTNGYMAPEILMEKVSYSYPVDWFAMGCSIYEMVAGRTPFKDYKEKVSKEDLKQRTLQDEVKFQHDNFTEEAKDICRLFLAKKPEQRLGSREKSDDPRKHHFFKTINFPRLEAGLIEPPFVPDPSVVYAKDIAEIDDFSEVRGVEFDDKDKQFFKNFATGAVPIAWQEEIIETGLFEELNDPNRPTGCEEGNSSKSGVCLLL
From the text: as §1

Row | SMILES | KINOMEscan: MYLK4 (panel of 442 kinases [1]) | KINOMEscan: DYRK1A (panel of 442 kinases [2]) | KINOMEscan: GRK7 (panel of 442 kinases [3])
1 | COc1cc(C(=O)N2CCC(N3CCN(C)CC3)CC2)ccc1Nc1ncc2c(n1)N(C)c1ccccc1C(=O)N2C [15 (LRRK2-IN-1)] | 80 | 99 | 100
2 | CCOc1cc(C(=O)N2CCC(N3CCN(C)CC3)CC2)ccc1Nc1ncc2c(n1)N(C1CCCC1)c1ccccc1C(=O)N2C [Compound 26] | 100 | 88 | 100
3 | COc1cc(C(=O)N2CCC(N3CCN(C)CC3)CC2)ccc1Nc1ncc2c(n1)N1CCc3cccc(c31)C(=O)N2C [Compound 24] | 78 | 67 | –
4 | COc1cc(C(=O)N2CCC(N3CCN(C)CC3)CC2)ccc1Nc1ncc2c(n1)N(C1CCCC1)c1ccccc1C(=O)N2C [Compound 25, 11-cyclopentyl-2-((2-methoxy-4-(4-(4-methylpiperazin-1-yl)piperidine-1-carbonyl)phenyl)amino)-5-methyl-5H-benzo[e]pyrimido[5,4-b][1,4]diazepin-6(11H)-one] | 88 | 100 | 94
